Patent US4347319A, “Microbiological epoxidation process” (priority 1980, dated 1982)

What follows are compounds tested on purified secondary alcohol dehydrogenase from Pichia sp. NRRL Y-11,328 (assay: Substrate specificity, electron acceptor and stoichiometry of purified yeast SADH). Details: not given.
Type: biochemical
With cytochrome c the “electron acceptor / carrier” value was “could not act as electron carrier”.

Same assay, conditions: examined spectrophotometrically
With `CC(O)CO` (stereo not drawn) [1,2-propandiol] the “oxidation by the purified enzyme” value was “not oxidized”.
`CCCCCC(C)O` (stereo not drawn) [2-Heptanol] was tested, and the “oxidation by the purified enzyme” value was “not oxidized”.
For `CCCCCCC(C)O` (stereo not drawn) [2-octanol], the “oxidation by the purified enzyme” value was “not oxidized”.
For `CCCCO` [butan-1-ol], the “oxidation by the purified enzyme” value was “not oxidized”.
In the case of `CC(O)CCO` (stereo not drawn) [butane 1,3-diol], the “oxidation by the purified enzyme” value is reported as “not oxidized”.
`CCO` [ethanol] was tested, and the “oxidation by the purified enzyme” value was “not oxidized”.
`CO` [methanol] was tested, and the “oxidation by the purified enzyme” value was “not oxidized”.
With `CCCCCO` [pentan-1-ol] the “oxidation by the purified enzyme” value was “not oxidized”.
For `CCCO` [propan-1-ol], the “oxidation by the purified enzyme” value was “not oxidized”.

What follows are compounds tested on Methylobacter vinelandii (CRL M5Y) NRRL B-11,218 (assay: Oxidation by washed cell suspensions of methane-grown cells). Details: methane-grown washed cells.
Type: cell-based
Protocol: The pH of the nutrient medium was adjusted to 7.0 by the addition of acid or base and 50 ml samples of the nutrient medium were charged into a plurality of 300 ml shaker flasks. The shaker flasks were inoculated with an inoculating loop of cells from an agar plate containing homogeneous colonies of the microorganisms on the plate (the purity of the isolates was confirmed by microscopic examination. The isolates had been maintained on agar plates under an atmosphere of methane and air having a 1:1 v/v gas ratio which had been transferred evey two weeks. The gaseous phase of the inoculated flasks was then replaced with a gas mixture comprised of methane and air having a ratio of 1:1 on a v/v basis. The inoculated flasks were sealed air tight and were incubated on a rotary shaker of orbital radius 2.5 cm at 250 rpm and at 30° C. for two days until turbidity in the medium had developed.
The cells were harvested by centrifugation at 10,000×g. at 4° C. for 30 minutes. The cell pellet was washed twice with a 0.15 M phosphate buffer at a pH of 7.0 (containing 0.002 M MgCl2). The washed cells were then suspended in a 0.15 M phosphate buffer at pH 7.0.
A 0.5 ml sample of each washed cell suspension (2 mg cells) was put into 10 ml vials at 4° C. which were sealed with a rubber cap. The gaseous phase of the vials was removed with vacuum and then was replaced with a gas mixture of the oxidative substrate (e.g., methane) and oxygen at a 1:1 v/v ratio. The vials were then incubated at 30 ° C. on a rotary shaker at 300 rpm. Samples of product (3 μl) were withdrawn periodically with a microsyringe and the products were analyzed by gas chromatography (ionization flame detector column).
The newly discovered and isolated microorganism strains of the present invention were each grown aerobically in the presence of methane in the manner described above. The methane-grown microbial cells were then washed, recovered and put to use in oxidizing an oxidative substrate by the procedure described above except in the case of a liquid substrate 10 μl of the substrate were used.
With `C1CCCCC1` [Cyclohexane] the “conversion rate cyclohexane to cyclohexanol” value was 1.5 μ moles/2 hr./mg. protein.
For `c1ccccc1` [benzene], the “oxidative conversion” value was “no oxidative conversion was detected”.
With `Cc1ccccc1` [toluene] the “oxidative conversion” value was “no oxidative conversion was detected”.

What follows are compounds tested on purified secondary alcohol dehydrogenase (SADH) from Pseudomonas sp. ATCC 21439 (assay: Effect of metal-chelating agents and thio reagents on purified SADH). Details: not given.
Type: biochemical
Protocol: Secondary alcohol dehydrogenase (SADH) from an obligate methanol utilizer, Pseudomonas sp. ATCC 21439 was purified as follows. […] 0.05 M sodium phosphate buffer, pH 7.0 with 0.5 mM dithiothretol (buffer A) and were disrupted sonically (5×1 min.). The crude extract was separated by centrifugation. The crude extract was heat-treated at 50° C. in a water bath for 10 minutes. The resulting precipitate was removed by centrifugation. To the supernatant solution, 25 ml of protamine sulfate solution (2% solution in 0.1 M Tris base) was added dropwise with continuous stirring. After standing for 30 minutes, the extract was centrifuged. The supernatant solution was fractionated with solid ammonium sulfate. […] This DEAE-cellulose eluate was concentrated by ammonium sulfate fractionation. Material precipitating between 30 and 50% ammonium sulfate saturation was collected by centrifugation and dialyzed overnight against A. This fraction was further washed and filtered through an Amicon unit with XM 50 membrane. The concentrated fraction (6 ml) inside the Amicon unit was applied to an Affi-Gel Blue column (0.8 cm×18 cm) which had been equilibrated with buffer A for affinity chromatography. The column was washed overnight with buffer A (0.18 ml./min.) and then was eluted with buffer A containing 5 mM NAD. Each 1 ml. fraction was collected.
The purified secondary alcohol dehydrogenase enzyme (SADH) may be used directly for converting C3 -C6 secondary alcohols to the corresponding methyl ketones by the procedures described above; however, a source of NAD^+ must be added to the reaction medium. One can determine the NAD-linked secondary alcohol dehydrogenase activity with a fluorescence spectrophotometer (Perkin Elmer, Model MPF 44A) by following the formation of reduced NAD (Ex 340 nm, Em 460 nm). The assay system (3 ml.) will typically contain: sodium phosphate buffer pH 7.0, 150 μmol; NAD 1.0 μmol; a given amount of enzyme preparation; and 20 μmol secondary alcohol. The reaction is started by the addition of secondary alcohol. One unit of SADH enzyme activity represents the reduction of one nmole NAD per minute.
The effect of metal-chelating agents and chioreagents on the activity of the purified SADH enzyme were studied. […] The possibility of ethanol or n-propanol as an inhibitor was studied.
`O=C(O)CN(CCN(CC(=O)O)CC(=O)O)CC(=O)O` [EDTA] was tested, and the “% inhibition of SADH activity” value was 63%.
With `O=C(O)CI` [iodoacetic acid] the “% inhibition of SADH activity” value was 0%.
In the case of `CCCO` [propan-1-ol], the “inhibition of SADH activity” value is reported as “did not inhibit”.

Same assay, conditions: final concentration of 1 mM; measured spectrofluorometrically
In the case of `O=C(O)c1cc(SSc2ccc([N+](=O)[O-])c(C(=O)O)c2)ccc1[N+](=O)[O-]` [5,5'-dithiobis(2-nitrobenzoic acid)], the “% inhibition of SADH activity” value is reported as 100%.
For `[Co+2]` [Co^++], the “% inhibition of SADH activity” value was 0%.
`[Mg+2]` [Mg^++] was tested, and the “% inhibition of SADH activity” value was 0%.
For `[Mn+2]` [Mn^++], the “% inhibition of SADH activity” value was 0%.
`CCN1C(=O)C=CC1=O` [N-ethylmalemide] was tested, and the “% inhibition of SADH activity” value was 6%.
In the case of `[N-]=[N+]=[N-]` [Sodium azide], the “% inhibition of SADH activity” value is reported as 10%.
`[Zn+2]` [Zn^++] was tested, and the “% inhibition of SADH activity” value was 0%.
With `[Cu+2]` [cupric] the “% inhibition of SADH activity” value was 25%.
For `[Fe+3]` [ferric], the “% inhibition of SADH activity” value was 35%.
With `[Fe+2]` [ferrous] the “% inhibition of SADH activity” value was 50%.
`[Ni+2]` [nickel] was tested, and the “% inhibition of SADH activity” value was 20%.
